Laboratory results reported in paper PMC11945486, “TAS1R2/TAS1R3 Single-Nucleotide Polymorphisms Affect Sweet Taste Receptor Activation by Sweeteners: The SWEET Project” (Nutrients, 2025).
Like-named read-outs stand apart in the source and are kept apart here. No end group written: not given here.

T1: human TAS1R2-WT/TAS1R3-F749S (Homo sapiens, UniProt Q7RTX0+Q8TE23, F749S)
T1 construct: expressed in transfected cells; host or cells: HEK293T stably expressing Gα16gust44
T1 sequence (Q8TE23 20-839): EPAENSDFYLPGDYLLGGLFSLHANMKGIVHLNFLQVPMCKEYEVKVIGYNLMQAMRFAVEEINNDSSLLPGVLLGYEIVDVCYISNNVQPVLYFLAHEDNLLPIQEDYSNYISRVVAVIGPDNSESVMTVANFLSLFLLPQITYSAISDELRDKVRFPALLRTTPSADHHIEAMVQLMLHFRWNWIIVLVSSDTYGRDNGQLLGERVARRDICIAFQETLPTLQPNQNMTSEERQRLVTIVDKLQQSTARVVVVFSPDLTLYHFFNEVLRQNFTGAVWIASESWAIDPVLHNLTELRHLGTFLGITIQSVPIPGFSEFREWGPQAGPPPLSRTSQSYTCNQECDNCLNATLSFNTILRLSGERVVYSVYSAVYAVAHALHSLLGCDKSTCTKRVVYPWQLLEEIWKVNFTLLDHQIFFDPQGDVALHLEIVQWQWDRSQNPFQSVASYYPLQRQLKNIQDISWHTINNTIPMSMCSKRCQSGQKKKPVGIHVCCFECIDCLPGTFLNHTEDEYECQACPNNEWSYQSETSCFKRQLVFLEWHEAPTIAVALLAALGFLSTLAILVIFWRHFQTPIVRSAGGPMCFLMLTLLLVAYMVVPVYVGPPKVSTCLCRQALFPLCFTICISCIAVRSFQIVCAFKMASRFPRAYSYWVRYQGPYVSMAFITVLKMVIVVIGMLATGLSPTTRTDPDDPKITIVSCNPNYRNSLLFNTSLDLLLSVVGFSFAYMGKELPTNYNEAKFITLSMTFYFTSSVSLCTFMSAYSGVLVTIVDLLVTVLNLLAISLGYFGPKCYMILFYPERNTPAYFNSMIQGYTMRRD
T1 sequence (Q7RTX0 21-852 F749S): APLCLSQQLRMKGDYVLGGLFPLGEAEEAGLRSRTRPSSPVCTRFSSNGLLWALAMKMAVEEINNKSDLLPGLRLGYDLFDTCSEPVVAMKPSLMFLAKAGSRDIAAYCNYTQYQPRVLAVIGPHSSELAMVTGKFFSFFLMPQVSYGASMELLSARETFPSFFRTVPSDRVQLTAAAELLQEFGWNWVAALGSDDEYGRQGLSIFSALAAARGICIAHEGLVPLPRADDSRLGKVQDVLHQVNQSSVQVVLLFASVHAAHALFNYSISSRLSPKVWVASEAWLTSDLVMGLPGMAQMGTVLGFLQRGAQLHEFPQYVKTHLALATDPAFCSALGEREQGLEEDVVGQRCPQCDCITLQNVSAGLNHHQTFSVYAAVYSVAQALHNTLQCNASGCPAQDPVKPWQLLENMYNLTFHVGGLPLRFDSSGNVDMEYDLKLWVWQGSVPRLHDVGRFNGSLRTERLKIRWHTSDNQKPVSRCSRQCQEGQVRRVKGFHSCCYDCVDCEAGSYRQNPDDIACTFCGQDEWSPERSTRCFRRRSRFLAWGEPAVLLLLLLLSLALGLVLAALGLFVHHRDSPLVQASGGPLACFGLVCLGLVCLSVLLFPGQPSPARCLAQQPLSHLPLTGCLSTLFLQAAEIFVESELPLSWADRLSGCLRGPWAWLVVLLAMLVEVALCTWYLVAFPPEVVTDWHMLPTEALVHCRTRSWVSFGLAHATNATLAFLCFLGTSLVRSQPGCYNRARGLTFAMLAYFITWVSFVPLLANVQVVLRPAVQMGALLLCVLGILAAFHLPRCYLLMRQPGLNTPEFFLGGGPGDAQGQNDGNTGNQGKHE


Target: T1, human TAS1R2-WT/TAS1R3-F749S
Assay: Calcium mobilisation assay, TAS1R2-WT with TAS1R3 variant F749S
Type: cell-based
Conditions: for Max ΔF/F0: maximal signal amplitude
Description: The coding sequences for TAS1R2 and TAS1R3 were commercially synthesised, and the human codon was optimised for expression in human cells. The coding sequences of human TAS1R2 and TAS1R3 were subcloned and inserted into the mammalian expression vectors pcDNA6/myc-HisA and pcDNA4/myc-HisA (Invitrogen; Thermo Fisher Scientific; Illkirch, France) between the EcoRI and NotI restriction sites, generating the plasmids pcDNA6-TAS1R2 and pcDNA4-TAS1R3, respectively. To increase protein expression in mammalian cells, an upstream start codon was used, which was a sequence called MAX, corresponding to the QBI SP163 element also described in pcDNA4-HisMax (Invitrogen; Thermo Fisher Scientific; Illkirch, France). To measure the expression level of the receptor by immunohistochemistry, we used the FLAG sequence ([…]) in the C-terminal position, which encodes the FLAG tag epitope. SNP variants of TAS1R2 and TAS1R3 were constructed based on […], respectively, using site-directed mutagenesis (Genewiz; Leipzig, Germany).
The HEK293T cells were kindly provided by Jay P. Slack (Givaudan Flavors Corporation; Cincinnati, OH, USA). HEK293T cells stably transfected with Gα16gust44 [43, 67] were seeded in poly-D-lysine-coated clear-bottom black 96-well plates (0.35 × 10^5 cells/well) in high-glucose DMEM supplemented with 2 mM GlutaMAX, 10% dialysed foetal bovine serum with penicillin/streptomycin and G418 (400 μg/mL) at 37 °C and 6.3% CO2 in a humidified atmosphere as previously reported. […] As a negative control, HEK293T cells were mock-transfected with the empty expression vector. After a further 24 h of incubation, the HEK293T cells were washed with C1 buffer (130 mM NaCl, 5 mM KCl, 10 mM HEPES pH 7.4 and 2 mM CaCl2). The 96-well plates containing the cells were then stimulated with sweet-tasting compounds. […] Different concentration ranges were tested depending on the sweet compound injected. The Ca^2+ changes were expressed as fractional changes in fluorescent light intensity: ΔF/F = (F − F0)/F0, where F was the fluorescent light intensity at each point, and F0 was the value of emitted fluorescent light prior to stimulus application. To calculate dose–response relationships, the changes in fluorescence upon stimulus application were averaged, mock-subtracted and baseline-corrected. The dose–response data obtained were adjusted using a 4-parameter logistic equation. The half-maximal effective concentrations (EC50 values) and maximal signal amplitudes were calculated using SigmaPlot software (version 15.0) (Systat Software; San Jose, CA, USA).
For in vitro calcium mobilisation assay performed on hTAS1R2-SNPs, hTAS1R3-SNPs and mTAS1R3-I60T, 6 to 7 concentrations were tested for each sweet compound, plus buffer alone. All concentration–receptor combinations were measured in duplicate, and each experiment was repeated at least 4 times (8 wells/concentration). Results were expressed for each concentration as ΔF/F mean ± SEM and represented as dose–response curves.

Row | R1 = Variant EC50/WT EC50 | Max ΔF/F0 | EC50 (read-out: EC50) | EC50 (brazzein) | Molecule
1 | 0.7 | 0.04 ± 0.01 | 410 ± 242 µM |  | CC1=CC(=O)NS(=O)(=O)O1 [Acesulfame K, acesulfame K]
2 | 3.0 | 0.29 ± 0.01 | 150 ± 19.6 µM |  | COc1ccc(CCC(=O)c2c(O)cc(O[C@@H]3O[C@H](CO)[C@@H](O)[C@H](O)[C@H]3O[C@@H]3O[C@@H](C)[C@H](O)[C@@H](O)[C@H]3O)cc2O)cc1O [NHDC, neohesperidin dihydrochalcone]
3 | 1.5 | 0.22 ± 0.01 | 1.82 ± 0.12 µM |  | COC(=O)[C@H](Cc1ccccc1)NC(=O)[C@H](CC(=O)O)NCCC(C)(C)C [Neotame]
4 | 0.9 | 1.90 ± 0.30 | 12.1 ± 6.1 µM |  | C=C(C)[C@@H]1CC=C(/C=N/O)CC1 [Perillartine, perillartine]
5 | 1.8 | 0.54 ± 0.03 | 71.8 ± 9.6 µM |  | C=C1C[C@@]23CC[C@H]4[C@@](C)(CCC[C@@]4(C)C(=O)O[C@@H]4O[C@H](CO)[C@@H](O)[C@H](O[C@@H]5O[C@H](CO)[C@@H](O)[C@H](O)[C@H]5O)[C@H]4O[C@@H]4O[C@H](CO)[C@@H](O)[C@H](O)[C@H]4O)[C@@H]2CC[C@]1(O[C@@H]1O[C@H](CO)[C@@H](O)[C@H](O[C@@H]2O[C@H](CO)[C@@H](O)[C@H](O)[C@H]2O)[C@H]1O[C@@H]1O[C@H](CO)[C@@H](O)[C@H](O)[C@H]1O)C3 [Rebaudioside M, rebaudioside M]
6 | 2.3 | 0.18 ± 0.01 | 252 ± 36 µM |  | OC[C@H]1O[C@H](O[C@]2(CCl)O[C@H](CCl)[C@@H](O)[C@@H]2O)[C@H](O)[C@@H](O)[C@H]1Cl [Sucralose]
7 | 1.9 | 0.65 ± 0.01 |  | 212.2 ± 8.6 µg/mL | brazzein (QDKCKKVYENYPVSKCQLANQCNYDCKLDKHARSGECFYDEKRNLQCICDYCEY; ends and bridges not checked; cysteine pairing not given here; UniProt P56552 1-54, looked up) [sweet-tasting protein obtained by recombinant production using the yeast Pichia pastoris]
8 | 3.0 | 0.42 ± 0.03 |  |  | thaumatin
9 |  |  | 31.2 ± 3.5 µM |  | thaumatin (protein, Eight disulfides, sweet-tasting plant protein, E957) ATFEIVNRCSYTVWAAASKGDAALDAGGRQLNSGESWTINVEPGTKGGKIWARTDCYFDDSGSGICKTGDCGGLLRCKRFGRPPTTLAEFSLNQYGKDYIDISNIKGFNVPMDFSPTTRGCRGVRCAADIVGQCPAKLKAPGGGCNDACTVFQTSEYCCTTGKCGPTEYSRFFKRLCPDAFSYVLDKPTTVTCPGSSNYRVTFCPTA

Row | Molecule | R1 = Variant EC50/WT EC50 | Max ΔF/F0 | EC50 (read-out: EC50) | EC50 (brazzein)
10 | O=S(=O)(O)NC1CCCCC1 [Cyclamate, cyclamate] |  |  | 3430 ± 1990 µM | 
11 | C[C@H](CC[C@@H](O[C@@H]1O[C@H](CO[C@@H]2O[C@H](CO)[C@@H](O)[C@H](O)[C@H]2O)[C@@H](O)[C@H](O)[C@H]1O[C@@H]1O[C@H](CO)[C@@H](O)[C@H](O)[C@H]1O)C(C)(C)O)[C@H]1CC[C@@]2(C)[C@@H]3CC=C4[C@@H](CC[C@H](O[C@@H]5O[C@H](CO[C@@H]6O[C@H](CO)[C@@H](O)[C@H](O)[C@H]6O)[C@@H](O)[C@H](O)[C@H]5O)C4(C)C)[C@]3(C)[C@H](O)C[C@]12C [Mogroside V, mogroside V] | 2.1 | 0.47 ± 0.02 | 65.5 ± 5.4 µM | 
